Experimental data published in US20050064462A1, “Methods, compositions, and kits for predicting the effect of compounds on hot flash symptoms” (priority 2003, published 2005).
Entries after “also recorded” stand apart in the source; their conditions may differ.

Experiments:
[1] = tested on: Type II Hexokinase; experiment: Differential gene expression in a cell following contact with reference compounds: Type II Hexokinase; type: cell-based; conditions: accession D26393; cell expressing estrogen receptor or estrogen related receptor, after contact with compound
Text: (§1) The expression of any gene known by one of skill in the art to be associated with hot flash symptoms, without limitation, can be assessed in the methods of the invention. The present invention provides numerous such genes as described in detail, below. Further, additional genes that are associated with hot flash symptoms can readily be identified by one of skill in the art according to the disclosure of the present invention. For example, a cell that expresses the estrogen receptor or estrogen related receptor can be contacted with a reference compound known to affect hot flash symptoms. The overall expression of genes in the cell following contact with the reference compound can be compared to the overall expression of genes in a similar cell that has not been contacted with the reference compound.
(§2) The expression of such genes to identify genes that are differentially expressed following contact with a compound with a known effect on hot flash symptoms can be monitored by any convenient method known by one of skill in the art. Most advantageously, the expression of many genes, e.g., thousands of genes, is monitored at once using a high throughput method for assessing expression of genes in the presence and absence of compounds known to affect hot flash symptoms. […]

[2] = tested on: Protein Tyrosine Phosphatase BAD2; experiment: Differential gene expression in a cell following contact with reference compounds: BAD2; type: cell-based; conditions: accession U02553; cell expressing estrogen receptor or estrogen related receptor, after contact with compound
Text: as §1, §2

[3] = tested on: Annexin 1; experiment: Differential gene expression in a cell following contact with reference compounds: Annexin 1; type: cell-based; conditions: accession AI171962; cell expressing estrogen receptor or estrogen related receptor, after contact with compound
Text: as §1, §2

[4] = tested on: N27; experiment: Differential gene expression in a cell following contact with reference compounds: N27; type: cell-based; conditions: accession AI014169; cell expressing estrogen receptor or estrogen related receptor, after contact with compound
Text: as §1, §2

[5] = tested on: HMG-box containing protein 1; experiment: Differential gene expression in a cell following contact with reference compounds: HBP1; type: cell-based; conditions: accession U09551; cell expressing estrogen receptor or estrogen related receptor, after contact with compound
Text: as §1, §2

[6] = tested on: D-binding protein; experiment: Differential gene expression in a cell following contact with reference compounds: D-binding protein; type: cell-based; conditions: accession J03179; cell expressing estrogen receptor or estrogen related receptor, after contact with compound
Text: as §1, §2

[7] = tested on: Protein Kinase C type I; experiment: Differential gene expression in a cell following contact with reference compounds: Protein Kinase C type I; type: cell-based; conditions: accession M13707; cell expressing estrogen receptor or estrogen related receptor, after contact with compound
Text: as §1, §2

[8] = tested on: hot flash symptoms; conditions: cited from earlier work
[9] = tested on: FE65 adaptor protein interacting with beta-amyloid precursor protein intracellular domain; experiment: Differential gene expression in a cell following contact with reference compounds: FE65; type: cell-based; conditions: accession X60469; cell expressing estrogen receptor or estrogen related receptor, after contact with compound
Text: as §1, §2

[10] = tested on: Activin Beta E; experiment: Differential gene expression in a cell following contact with reference compounds: Activin Beta E; type: cell-based; conditions: accession AF089825; cell expressing estrogen receptor or estrogen related receptor, after contact with compound
Text: as §1, §2

[11] = tested on: Multi Drug Resistance Gene; experiment: Differential gene expression in a cell following contact with reference compounds: Multi Drug Resistance Gene; type: cell-based; conditions: accession M81855; cell expressing estrogen receptor or estrogen related receptor, after contact with compound
Text: as §1, §2

[12] = tested on: Parvalbumin; experiment: Differential gene expression in a cell following contact with reference compounds: Parvalbumin; type: cell-based; conditions: accession AF022935; cell expressing estrogen receptor or estrogen related receptor, after contact with compound
Text: as §1, §2

[13] = tested on: Prolactin; experiment: Differential gene expression in a cell following contact with reference compounds: Prolactin; type: cell-based; conditions: accession AI175539; cell expressing estrogen receptor or estrogen related receptor, after contact with compound
Text: as §1, §2

[14] = tested on: Argininosuccinate Synthetase; experiment: Differential gene expression in a cell following contact with reference compounds: Argininosuccinate Synthetase; type: cell-based; conditions: accession X12459; cell expressing estrogen receptor or estrogen related receptor, after contact with compound
Text: as §1, §2

[15] = tested on: Ribonucleoside Reductase Nuclear Receptor; experiment: Differential gene expression in a cell following contact with reference compounds: RNR-1; type: cell-based; conditions: accession L08595; cell expressing estrogen receptor or estrogen related receptor, after contact with compound
Text: as §1, §2

[16] = tested on: Interleukin-18; experiment: Differential gene expression in a cell following contact with reference compounds: Interleukin-18; type: cell-based; conditions: accession AJ222813; cell expressing estrogen receptor or estrogen related receptor, after contact with compound
Text: as §1, §2

[17] = tested on: ARL gene 4; experiment: Differential gene expression in a cell following contact with reference compounds: ARL gene 4; type: cell-based; conditions: accession X77235; cell expressing estrogen receptor or estrogen related receptor, after contact with compound
Text: as §1, §2

[18] = tested on: Calpain; experiment: Differential gene expression in a cell following contact with reference compounds: Calpain; type: cell-based; conditions: accession D14478; cell expressing estrogen receptor or estrogen related receptor, after contact with compound
Text: as §1, §2

[19] = tested on: EST196325; experiment: Differential gene expression in a cell following contact with reference compounds: EST196325; type: cell-based; conditions: accession AA892522; cell expressing estrogen receptor or estrogen related receptor, after contact with compound
Text: as §1, §2

[20] = tested on: Interleukin-1 β-converting enzyme-related protease CPP32; experiment: Differential gene expression in a cell following contact with reference compounds: CPP32; type: cell-based; conditions: accession U84410; cell expressing estrogen receptor or estrogen related receptor, after contact with compound
Text: as §1, §2

[21] = tested on: EST208064; experiment: Differential gene expression in a cell following contact with reference compounds: EST208064; type: cell-based; conditions: accession AI013389; cell expressing estrogen receptor or estrogen related receptor, after contact with compound
Text: as §1, §2

[22] = tested on: 2-alpha-1 globin; experiment: Differential gene expression in a cell following contact with reference compounds: 2-alpha-1 globin; type: cell-based; conditions: accession X56325; cell expressing estrogen receptor or estrogen related receptor, after contact with compound
Text: as §1, §2

## 4-hydroxy tamoxifen
[1]
  Effect on Expression of Type II Hexokinase (HKII): downregulation
[2]
  Effect on Expression of Protein Tyrosine Phosphatase BAD2: downregulation
[3]
  Effect on Expression of Annexin 1 (EST 21795): Upregulated
[4]
  Effect on Expression of N27 (EST 207724): Upregulated
[5]
  Effect on Expression of HMG-box containing protein 1 (HBP1): Upregulated
[6]
  Effect on Expression of D-binding protein: Upregulated
[7]
  Effect on Expression of Protein Kinase C type I (PKC type I): Upregulated
[8]; when administered to a subject
  known effect on the incidence of hot flash symptoms: increasing effect on hot flash symptoms; also recorded: increase the incidence of hot flash symptoms

## O=C(c1ccc(OCCN2CCCCC2)cc1)c1c(-c2ccc(O)cc2)sc2cc(O)ccc12 [Raloxifene, raloxifene]
[3]
  Effect on Expression of Annexin 1 (EST 21795): Upregulated
[4]
  Effect on Expression of N27 (EST 207724): Upregulated
[5]
  Effect on Expression of HMG-box containing protein 1 (HBP1): Upregulated
[6]
  Effect on Expression of D-binding protein: Upregulated
[9]
  Effect on Expression of FE65 adaptor protein interacting with beta-amyloid precursor protein intracellular domain (FE65): Upregulated
[7]
  Effect on Expression of Protein Kinase C type I (PKC type I): Upregulated
[8]; administered in the treatment of osteoporosis
  subjects experiencing hot flash symptoms of sufficient severity to discontinue therapy: approximately 11%

## C#C[C@]1(O)CC[C@H]2[C@@H]3[C@H](C)CC4=C(CCC(=O)C4)[C@H]3CC[C@@]21C [Tibolone, tibolone]
[10]
  Effect on Expression of Activin Beta E: Upregulated
[1]
  Effect on Expression of Type II Hexokinase (HKII): Upregulated
[11]
  Effect on Expression of Multi Drug Resistance Gene (MDR): Upregulated
[12]
  Effect on Expression of Parvalbumin: Upregulated
[2]
  Effect on Expression of Protein Tyrosine Phosphatase BAD2: Upregulated
[13]
  Effect on Expression of Prolactin: Upregulated
[14]
  Effect on Expression of Argininosuccinate Synthetase: Upregulated
[15]
  Effect on Expression of Ribonucleoside Reductase Nuclear Receptor (RNR-1): Upregulated
[16]
  Effect on Expression of Interleukin-18 (IL-18): Upregulated
[17]
  Effect on Expression of ARL gene 4: Upregulated
[18]
  Effect on Expression of Calpain: Upregulated
[19]
  Effect on Expression of EST196325: Upregulated
[20]
  Effect on Expression of Interleukin-1 β-converting enzyme-related protease CPP32: Upregulated
[21]
  Effect on Expression of EST208064: Upregulated
[22]
  Effect on Expression of 2-alpha-1 globin: Upregulated
